Measured values: PubChem BioAssay (NCI)
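Values below derive from 48-hour exposures of cells grown in 96-well plates, with endpoints linearly interpolated between the two concentrations bracketing the appropriate inhibition level. TGI denotes the concentration required for complete inhibition of growth.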

How the values were obtained:
Assay in all cases: growth of human tumour cells (NCI), 48 h
786-0 renal = tested on: 786-0 renal
A498 renal = tested on: A498 renal
A549 NSCLC = tested on: A549 NSCLC
ACHN renal = tested on: ACHN renal
BT-549 breast = tested on: BT-549 breast
CAKI-1 renal = tested on: CAKI-1 renal
CCRF-CEM leukemia = tested on: CCRF-CEM leukemia
COLO 205 colon = tested on: COLO 205 colon
DU-145 prostate = tested on: DU-145 prostate
EKVX NSCLC = tested on: EKVX NSCLC
HCC-2998 colon = tested on: HCC-2998 colon
HCT-116 colon = tested on: HCT-116 colon
HCT-15 colon = tested on: HCT-15 colon
HL-60(TB) leukemia = tested on: HL-60(TB) leukemia
HOP-62 NSCLC = tested on: HOP-62 NSCLC
HOP-92 NSCLC = tested on: HOP-92 NSCLC
HS 578T breast = tested on: HS 578T breast
HT29 colon = tested on: HT29 colon
K-562 leukemia = tested on: K-562 leukemia
KM12 colon = tested on: KM12 colon
LOX IMVI melanoma = tested on: LOX IMVI melanoma
M14 melanoma = tested on: M14 melanoma
MALME-3M melanoma = tested on: MALME-3M melanoma
MCF7 breast = tested on: MCF7 breast
MDA-MB-231 breast = tested on: MDA-MB-231 breast
MDA-MB-435 = tested on: MDA-MB-435
MDA-N = tested on: MDA-N
MOLT-4 leukemia = tested on: MOLT-4 leukemia
NCI-H226 lung = tested on: NCI-H226 lung
NCI-H23 lung = tested on: NCI-H23 lung
NCI-H460 lung = tested on: NCI-H460 lung
NCI-H522 lung = tested on: NCI-H522 lung
NCI/ADR-RES ovarian = tested on: NCI/ADR-RES ovarian
OVCAR-3 ovarian = tested on: OVCAR-3 ovarian
OVCAR-4 ovarian = tested on: OVCAR-4 ovarian
OVCAR-5 ovarian = tested on: OVCAR-5 ovarian
OVCAR-8 ovarian = tested on: OVCAR-8 ovarian
PC-3 prostate = tested on: PC-3 prostate
RXF 393 renal = tested on: RXF 393 renal
SF-268 CNS = tested on: SF-268 CNS
SF-295 CNS = tested on: SF-295 CNS
SF-539 CNS = tested on: SF-539 CNS
SK-MEL-2 melanoma = tested on: SK-MEL-2 melanoma
SK-MEL-28 melanoma = tested on: SK-MEL-28 melanoma
SK-MEL-5 melanoma = tested on: SK-MEL-5 melanoma
SK-OV-3 ovarian = tested on: SK-OV-3 ovarian
SN12C renal = tested on: SN12C renal
SNB-19 CNS = tested on: SNB-19 CNS
SNB-75 CNS = tested on: SNB-75 CNS
SR leukemia = tested on: SR leukemia
SW-620 colon = tested on: SW-620 colon
T-47D breast = tested on: T-47D breast
TK-10 renal = tested on: TK-10 renal
U251 CNS = tested on: U251 CNS
UACC-257 melanoma = tested on: UACC-257 melanoma
UACC-62 melanoma = tested on: UACC-62 melanoma
UO-31 renal = tested on: UO-31 renal
IGROV1 ovarian = tested on: IGROV1 ovarian
RPMI-8226 leukemia = tested on: RPMI-8226 leukemia

O=C(Nc1nn(C(=O)c2cccnc2)c(=O)s1)c1ccc(Cl)cc1
TGI (786-0 renal): > 100 µM | TGI (A498 renal): > 100 µM | TGI (A549 NSCLC): > 100 µM | TGI (ACHN renal): > 100 µM | TGI (BT-549 breast): > 100 µM | TGI (CAKI-1 renal): > 100 µM | TGI (CCRF-CEM leukemia): > 100 µM | TGI (COLO 205 colon): > 100 µM | TGI (DU-145 prostate): > 100 µM | TGI (EKVX NSCLC): > 100 µM | TGI (HCC-2998 colon): > 100 µM | TGI (HCT-116 colon): > 100 µM | TGI (HCT-15 colon): > 100 µM | TGI (HL-60(TB) leukemia): > 100 µM | TGI (HOP-62 NSCLC): > 100 µM | TGI (HOP-92 NSCLC): > 100 µM | TGI (HS 578T breast): 60.3 µM | TGI (HT29 colon): > 100 µM | TGI (K-562 leukemia): > 100 µM | TGI (KM12 colon): > 100 µM | TGI (LOX IMVI melanoma): > 100 µM | TGI (M14 melanoma): > 100 µM | TGI (MALME-3M melanoma): 91.5 µM | TGI (MCF7 breast): > 100 µM | TGI (MDA-MB-231 breast): > 100 µM | TGI (MDA-MB-435): > 100 µM | TGI (MDA-N): > 100 µM | TGI (MOLT-4 leukemia): > 100 µM | TGI (NCI-H226 lung): 77.2 µM | TGI (NCI-H23 lung): > 100 µM | TGI (NCI-H460 lung): > 100 µM | TGI (NCI-H522 lung): 51.7 µM | TGI (NCI/ADR-RES ovarian): > 100 µM | TGI (OVCAR-3 ovarian): > 100 µM | TGI (OVCAR-4 ovarian): > 100 µM | TGI (OVCAR-5 ovarian): > 100 µM | TGI (OVCAR-8 ovarian): > 100 µM | TGI (PC-3 prostate): > 100 µM | TGI (RXF 393 renal): 93.8 µM | TGI (SF-268 CNS): 40.4 µM | TGI (SF-295 CNS): > 100 µM | TGI (SF-539 CNS): 95.4 µM | TGI (SK-MEL-2 melanoma): > 100 µM | TGI (SK-MEL-28 melanoma): > 100 µM | TGI (SK-MEL-5 melanoma): > 100 µM | TGI (SK-OV-3 ovarian): > 100 µM | TGI (SN12C renal): > 100 µM | TGI (SNB-19 CNS): > 100 µM | TGI (SNB-75 CNS): 82.2 µM | TGI (SR leukemia): > 100 µM | TGI (SW-620 colon): > 100 µM | TGI (T-47D breast): > 100 µM | TGI (TK-10 renal): > 100 µM | TGI (U251 CNS): > 100 µM | TGI (UACC-257 melanoma): > 100 µM | TGI (UACC-62 melanoma): > 100 µM | TGI (UO-31 renal): 78.9 µM

CC1=C(C(=O)OCCO[N+](=O)[O-])C(c2ccccc2[N+](=O)[O-])C(C(=O)OC(C)C)=C(C)N1 (stereo not given)
TGI (786-0 renal): 41.4 µM | TGI (A498 renal): 46.2 µM | TGI (A549 NSCLC): 41.9 µM | TGI (ACHN renal): 87.6 µM | TGI (BT-549 breast): 30.4 µM | TGI (CAKI-1 renal): 59.7 µM | TGI (CCRF-CEM leukemia): > 100 µM | TGI (COLO 205 colon): 29.7 µM | TGI (DU-145 prostate): 50.4 µM | TGI (EKVX NSCLC): 53 µM | TGI (HCC-2998 colon): 29.5 µM | TGI (HCT-116 colon): 29.8 µM | TGI (HCT-15 colon): 30.9 µM | TGI (HL-60(TB) leukemia): > 100 µM | TGI (HOP-62 NSCLC): 33.8 µM | TGI (HOP-92 NSCLC): 31.4 µM | TGI (HS 578T breast): 41.2 µM | TGI (HT29 colon): 30.3 µM | TGI (IGROV1 ovarian): 34.9 µM | TGI (K-562 leukemia): > 100 µM | TGI (KM12 colon): 28.1 µM | TGI (LOX IMVI melanoma): 32.3 µM | TGI (M14 melanoma): 29.3 µM | TGI (MALME-3M melanoma): 35.9 µM | TGI (MCF7 breast): 44.9 µM | TGI (MDA-MB-231 breast): 29 µM | TGI (MDA-MB-435): 28.5 µM | TGI (MDA-N): 31.1 µM | TGI (MOLT-4 leukemia): > 100 µM | TGI (NCI-H226 lung): 35 µM | TGI (NCI-H23 lung): 48.5 µM | TGI (NCI-H460 lung): 34.2 µM | TGI (NCI-H522 lung): 30.5 µM | TGI (NCI/ADR-RES ovarian): 51.7 µM | TGI (OVCAR-3 ovarian): 27.9 µM | TGI (OVCAR-4 ovarian): 52.3 µM | TGI (OVCAR-5 ovarian): 30.4 µM | TGI (OVCAR-8 ovarian): 63.7 µM | TGI (PC-3 prostate): 23.2 µM | TGI (RPMI-8226 leukemia): > 100 µM | TGI (RXF 393 renal): 30.3 µM | TGI (SF-268 CNS): 47.1 µM | TGI (SF-295 CNS): 34.1 µM | TGI (SF-539 CNS): 33.2 µM | TGI (SK-MEL-2 melanoma): 30.5 µM | TGI (SK-MEL-28 melanoma): 30.4 µM | TGI (SK-MEL-5 melanoma): 26.8 µM | TGI (SK-OV-3 ovarian): 39.8 µM | TGI (SN12C renal): 34.9 µM | TGI (SNB-19 CNS): 39.6 µM | TGI (SR leukemia): > 100 µM | TGI (SW-620 colon): 39.9 µM | TGI (T-47D breast): 46.8 µM | TGI (TK-10 renal): 58.4 µM | TGI (U251 CNS): 30 µM | TGI (UACC-257 melanoma): 28.7 µM | TGI (UACC-62 melanoma): 28.6 µM | TGI (UO-31 renal): 26.2 µM
